Experimental data taken from US20260083865A1, “PROSTATE SPECIFIC MEMBRANE ANTIGEN (PSMA) LIGANDS AND USE THEREOF” (priority 2022, published 2026).
Like-named read-outs stand apart in the source and are kept apart here. Numbered stars: 1 amine (or outer) side, 2 acyl side, 3 side chain; on linkers, the order of the positions; unused ones are H or OH. Bridge positions count the residues as written; N and C are the ends. Square brackets hold non-standard residues; d marks the D form. Peptide text beside a SMILES is read from it. * marks the point of attachment. TtdsdLys(DOTA)NH2 = NC(=O)[C@@H](CCCCNC(=O)CN1CCN(CC(=O)O)CCN(CC(=O)O)CCN(CC(=O)O)CC1)NC(=O)CCC(=O)NCCCOCCOCCOCCCN*; X3 = O=C(O)CN1CCN(CC(=O)O)CCN(CC(=O)NCCCOCCOCCOCCCN*)CCN(CC(=O)O)CC1; DOTA = O=C(O)CN1CCN(CC(=O)O)CCN(CC(=O)*)CCN(CC(=O)O)CC1; Trp(5-Cl) = N[C@@H](Cc1c[nH]c2ccc(Cl)cc12)C(=O)O; Phe(3-Cl) = N[C@@H](Cc1cccc(Cl)c1)C(=O)O; Arg(Me) = CNC(=N)NCCC[C@H](N)C(=O)O; X1 = O=C(CC1CCN([*:1])CC1)[*:2]; Cit = NC(=O)NCCC[C@H](N)C(=O)O; Lys(Me) = CNCCCC[C@H](N)C(=O)O; Suc = O=C(CCC(=O)[*:2])[*:1]; Tle = CC(C)(C)[C@H](N)C(=O)O; Nle = CCCC[C@H](N)C(=O)O; Aib = CC(C)(N)C(=O)O; CO = O=C([*:1])[*:2]; NHBu = CCCCN*

Experiments:
[1] = molecular target: T1, PSMA-expressing C4-2 cells (Homo sapiens, UniProt Q04609); test: FACS binding assay (competition with 50 nM PSM-0183); settings: read-out: pIC50 [C4-2] CAT (converted)
T1 construct: PSMA-expressing C4-2 cells (ATCC, Cat. No. CRL-3314) were cultured in RPMI-1640; host or cells: C4-2 cells
T1 sequence (Q04609 whole entry): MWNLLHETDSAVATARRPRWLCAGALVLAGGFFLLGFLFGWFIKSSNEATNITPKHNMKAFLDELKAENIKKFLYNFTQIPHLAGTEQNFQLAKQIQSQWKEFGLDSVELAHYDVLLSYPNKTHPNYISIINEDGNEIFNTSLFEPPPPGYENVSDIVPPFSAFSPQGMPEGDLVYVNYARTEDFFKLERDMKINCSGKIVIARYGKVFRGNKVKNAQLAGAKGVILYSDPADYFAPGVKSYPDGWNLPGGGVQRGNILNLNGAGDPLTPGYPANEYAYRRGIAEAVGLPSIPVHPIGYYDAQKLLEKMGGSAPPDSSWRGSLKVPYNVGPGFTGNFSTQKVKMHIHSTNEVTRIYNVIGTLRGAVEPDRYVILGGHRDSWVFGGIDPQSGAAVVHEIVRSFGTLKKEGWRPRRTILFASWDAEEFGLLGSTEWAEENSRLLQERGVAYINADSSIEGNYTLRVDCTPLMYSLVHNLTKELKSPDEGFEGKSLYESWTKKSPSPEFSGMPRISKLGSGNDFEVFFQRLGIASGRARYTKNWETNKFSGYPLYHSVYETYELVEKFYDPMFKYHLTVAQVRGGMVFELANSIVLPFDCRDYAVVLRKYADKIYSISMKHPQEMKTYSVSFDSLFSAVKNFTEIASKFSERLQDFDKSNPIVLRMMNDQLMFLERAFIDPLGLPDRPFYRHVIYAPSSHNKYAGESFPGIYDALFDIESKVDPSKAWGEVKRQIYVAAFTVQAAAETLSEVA
Outline: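 C4-2 cells were incubated 1 h at 4 °C with 50 nM AF488-labelled peptide PSM-0183 plus increasing test compound concentrations, then washed twice in ice-cold buffer. Median fluorescence in the AF488 channel was read by flow cytometry. IC50/pIC50 was derived by 4PL fitting of MFI versus concentration.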

[2] = molecular target: T2, Fc-fusion protein of human PSMA (hPSMA-Fc) (Homo sapiens, UniProt Q04609); test: Surface plasmon resonance assay (Biacore T200, single cycle kinetic); type: binding; settings: hPSMA-Fc, 25° C., read-out: pKD CAT (converted)
T2 construct: purchased Acro Biosystems PSA-H5264
T2 sequence (Q04609 44-750 limits assumed): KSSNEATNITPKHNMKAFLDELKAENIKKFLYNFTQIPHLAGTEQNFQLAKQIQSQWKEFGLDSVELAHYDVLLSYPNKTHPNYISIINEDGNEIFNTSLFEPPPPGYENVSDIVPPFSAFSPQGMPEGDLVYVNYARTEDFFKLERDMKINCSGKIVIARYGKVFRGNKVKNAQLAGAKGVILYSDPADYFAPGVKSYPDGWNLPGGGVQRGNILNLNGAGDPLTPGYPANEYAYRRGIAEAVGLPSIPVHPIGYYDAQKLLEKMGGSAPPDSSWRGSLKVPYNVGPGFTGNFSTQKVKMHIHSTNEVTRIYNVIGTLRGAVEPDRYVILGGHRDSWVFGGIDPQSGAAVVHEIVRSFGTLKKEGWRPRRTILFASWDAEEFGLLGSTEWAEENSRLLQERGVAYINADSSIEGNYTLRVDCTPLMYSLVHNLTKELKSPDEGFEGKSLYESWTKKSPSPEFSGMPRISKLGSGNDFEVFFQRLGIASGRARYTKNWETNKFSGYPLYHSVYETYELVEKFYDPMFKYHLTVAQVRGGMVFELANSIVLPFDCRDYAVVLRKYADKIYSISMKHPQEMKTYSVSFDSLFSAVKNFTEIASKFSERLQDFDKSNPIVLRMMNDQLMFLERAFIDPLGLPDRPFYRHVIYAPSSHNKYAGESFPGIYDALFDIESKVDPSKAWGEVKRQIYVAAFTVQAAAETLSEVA
Outline: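 hPSMA-Fc was captured (~1000 RU) on an Fc-binding-peptide CM5 chip, and compounds were run in single cycle kinetic mode at 25° C in HBST with 0.1% DMSO. Double-blank-corrected sensorgrams were fitted to a 1:1 Langmuir model to give KD, reported as pKD.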

[3] = pIC50 category of FACS binding, C4-2 cells
[4] = pKD category for PSMA SPR activity assay
[5] = FACS binding, PSMA-expressing C4-2 cells, pIC50 category

SMILES	IC50 [1, 3] [µM]	Kd [2, 4] [µM]	IC50 [1, 5] [µM]	Kd ([2]; PSMA SPR assay, pKD category) [µM]
CCCCNC(=O)N[C@H](C(=O)NC(C)(C)C(=O)N[C@@H](Cc1ccccc1)C(=O)N[C@H]1CSSC[C@@H](C(=O)N[C@H](C(=O)N[C@H](C(=O)N2CCC(CC(=O)N[C@H](CCCCNC(=O)CN3CCN(CC(=O)O)CCN(CC(=O)O)CCN(CC(=O)O)CC3)C(N)=O)CC2)[C@@H](C)O)C(C)(C)C)NC(=O)[C@H](CC(N)=O)NC(=O)C(C)(C)NC(=O)[C@H](CCCNC(N)=O)NC(=O)[C@H](CCCCN)NC1=O)[C@@H](C)O [PSM-0434, nBuCAyl-Thr-Aib-Phe-[Cys-Lys-Cit-Aib-Asn-Cys]-Tle-Thr-Cmp-lys(DOTA)-NH2] ({NHBu-CO}-T[Aib]FCK[Cit][Aib]NC[Tle]T[X1][dK](DOTA)-NH2; disulfide 4-9)	0.2 to 1.26	0.0126 to 0.126	–	–
CC(=O)N[C@H](C(=O)NC(C)(C)C(=O)N[C@@H](Cc1ccccc1)C(=O)N[C@@H]1CSSC[C@H](C(=O)N[C@H](C(=O)N[C@H](C(N)=O)[C@@H](C)O)C(C)(C)C)NC(=O)[C@H](CC(N)=O)NC(=O)C(C)(C)NC(=O)[C@H](CCCNC(=N)N)NC(=O)[C@H](CCCCN)NC1=O)[C@@H](C)O [PSM-0327, Ac-Thr-Aib-Phe-[cys-Lys-Arg-Aib-Asn-cys]-Tle-Thr-NH2] (Ac-T[Aib]F[dC]KR[Aib]N[dC][Tle]T-NH2; disulfide 4-9)	–	–	> 3.16	> 0.501
CNCCCC[C@@H]1NC(=O)[C@@H](NC(=O)[C@H](Cc2c[nH]c3ccc(Cl)cc23)NC(=O)C(C)(C)NC(=O)[C@@H](NC(=O)CC2CCN(C(=O)CN3CCN(CC(=O)O)CCN(CC(=O)O)CCN(CC(=O)O)CC3)CC2)[C@@H](C)O)CSSC[C@@H](C(=O)N[C@H](C(=O)N[C@H](C(N)=O)[C@@H](C)O)C(C)(C)C)NC(=O)[C@H](CC(N)=O)NC(=O)C(C)(C)NC(=O)[C@H](CCCNC(=N)NC)NC1=O [PSM-0308, DOTA-Cmp-Thr-Aib-5Clw-[Cys-Lys(Me)-Arg(Me)-Aib-Asn-Cys]-Tle-Thr-NH2] ({DOTA}-[X1]T[Aib][Trp(5-Cl)]C[Lys(Me)][Arg(Me)][Aib]NC[Tle]T-NH2; disulfide 5-10)	–	–	0.2 to 1.26	0.126 to 0.501
CCCC[C@H](NC(=O)[C@@H]1CSSC[C@H](NC(=O)[C@H](Cc2ccccc2)NC(=O)C(C)(C)NC(=O)[C@@H](NC(C)=O)[C@@H](C)O)C(=O)N[C@@H](CCCCN)C(=O)N[C@@H](CCCNC(=N)N)C(=O)N[C@@H](C)C(=O)N[C@@H](CC(N)=O)C(=O)N1)C(=O)N[C@H](C(=O)N[C@@H](CC(=O)O)C(N)=O)[C@@H](C)O [PSM-0501, Ac-Thr-Aib-Phe-[Cys-Lys-Arg-Ala-Asn-Cys]-Nle-Thr-Asp-NH2] (Ac-T[Aib]FCKRANC[Nle]TD-NH2; disulfide 4-9)	< 0.2	< 0.0126	–	–
CC(=O)N[C@H](C(=O)NC(C)(C)C(=O)N[C@@H](Cc1cccc(Cl)c1)C(=O)N[C@H]1CSSC[C@@H](C(=O)N[C@H](C(=O)N[C@H](C(=O)N[C@@H](CC(=O)O)C(N)=O)[C@@H](C)O)C(C)(C)C)NC(=O)[C@H](CC(N)=O)NC(=O)C(C)(C)NC(=O)[C@H](CCCNC(=N)N)NC(=O)[C@H](CCCCN)NC1=O)[C@@H](C)O [PSM-0383, Ac-Thr-Aib-Mcf-[Cys-Lys-Arg-Aib-Asn-Cys]-Tle-Thr-Asp-NH2] (Ac-T[Aib][Phe(3-Cl)]CKR[Aib]NC[Tle]TD-NH2; disulfide 4-9)	< 0.2	< 0.0126	–	–

More lines, now with the values ahead:

IC50 [1, 3] [µM]	Kd [2, 4] [µM]	IC50 [1, 5] [µM]	Kd ([2]; PSMA SPR assay, pKD category) [µM]	SMILES
0.2 to 1.26	0.0126 to 0.126	–	–	C[C@@H](O)[C@H](NC(=O)[C@@H](NC(=O)[C@@H]1CSSC[C@H](NC(=O)[C@H](Cc2ccccc2)NC(=O)C(C)(C)NC(=O)[C@@H](NC(=O)CCC(=O)NCCCOCCOCCOCCCNC(=O)CN2CCN(CC(=O)O)CCN(CC(=O)O)CCN(CC(=O)O)CC2)[C@@H](C)O)C(=O)N[C@@H](CCCCN)C(=O)N[C@@H](CCC(N)=O)C(=O)NC(C)(C)C(=O)N[C@@H](CC(N)=O)C(=O)N1)C(C)(C)C)C(N)=O [PSM-0521, DOTA-Ttds-Thr-Aib-Phe-[Cys-Lys-Gln-Aib-Asn-Cys]-Tle-Thr-NH2] ({X3-Suc}-T[Aib]FCKQ[Aib]NC[Tle]T-NH2; disulfide 4-9)
–	–	< 0.2	< 0.0126	CC(=O)N[C@H](C(=O)NC(C)(C)C(=O)N[C@@H](Cc1ccccc1)C(=O)N[C@H]1CSSC[C@@H](C(=O)N[C@H](C(=O)N[C@H](C(=O)N[C@@H](CC(=O)O)C(=O)NCCCOCCOCCOCCCNC(=O)CCC(=O)N[C@H](CCCCNC(=O)CN2CCN(CC(=O)O)CCN(CC(=O)O)CCN(CC(=O)O)CC2)C(N)=O)[C@@H](C)O)C(C)(C)C)NC(=O)[C@H](CC(N)=O)NC(=O)[C@H](C)NC(=O)[C@H](CCCNC(=N)N)NC(=O)[C@H](CCCCN)NC1=O)[C@@H](C)O [PSM-0295, Ac-Thr-Aib-Phe-[Cys-Lys-Arg-Ala-Asn-Cys]-Tle-Thr-Asp-Ttds-lys(DOTA)-NH2] (Ac-T[Aib]FCKRANC[Tle]TD-{TtdsdLys(DOTA)NH2}; disulfide 4-9)
